Reference: patent US20230346884A1, “Molecular Targets for Modulation of Dissociative and Associative States” (The Board of Trustees of the Leland Stanford Junior …, priority 2020, published 2023)
Entries after “also recorded” stand apart in the source; their conditions may differ.

Key:
[1] = test system: mice; experiment: Righting reflex assay; format: in vivo, mouse
Source text: Righting Reflex Assay: Mice were held at the neck and tail, rotated to supine position on a flat surface, and quickly released. Time to right was quantified as moment of release to moment when all 4 legs touched the ground. A five second threshold was used to classify righting success (less than 5 seconds) from failure (more than 5 seconds). […] Illumination began for 30 seconds, and then the mouse was swiftly inverted onto the flat surface.

[2] = test system: mouse; experiment: Ketamine dose-effect relationship in mouse
Description: (§1) (2 mg/kg), lidocaine (topical), LSD ((+)-Lysergic acid diethylamide (+)-tartrate (2:1), 0.3 mg/kg), and diazepam (2 mg/kg). […] For anti-depressant effects, human doses are typically 0.3-1 mg/kg, and in mouse 3-10 mg/kg.

[3] = test system: retrosplenial cortex (RSP); experiment: Widefield (pan-cortical) imaging of cortical activity in GCaMP6s mice
Description: as §1
As described^8, mice were anesthetized with isoflurane, the scalp was removed, the skull cleaned and dried, and a custom head-plate was cemented to contacts over the cerebellum and in front of the olfactory bulb. The skull was then covered in a thin layer of cyanoacrylate glue (Apollo 2000, Cyberbond), clear dental acrylic (Ortho-Jet, Lang Dental), and clear nail polish (Electron Microscopy Services). […] (0.1 mg/kg) was injected subcutaneously for pain management. […] Imaging was performed on a custom-built fluorescence microscope designed for high light collection efficiency and large field of view. […] Alternating 410 nm and 488 nm illumination for non-Ca^2+ dependent artifact removal was controlled using a microcontroller (Arduino) slaved to the frame output trigger of the camera.

[4] = test system: retrosplenial cortex (RSP); experiment: Fiber photometry in RSP (GCaMP6m); format: in vivo, mouse
Source text: A 405 nm and 470 nm LED illumination (Thorlabs) was combined (425 nm longpass, Thorlabs DMLP425) and coupled into a fiber optic patch cord (400 μm diameter, 0.48 NA, Doric Lenses) using a longpass dichroic (505 nm, Thorlabs DMLP505) and a fixed-focused coupler/collimator with a standard FC connector (F240FC-A, NA 0.51, f =7.9 mm)^47,48. Each illumination channel was frequency modulated using the sync output from a lock-in amplifier (SR810 DSP, Stanford Research Systems). GCaMP fluorescence was collected through the same patchcord and delivered through a bandpass emission filter (Semrock, FF01-520/35) onto a NewFocus 2151 femtowatt silicon photoreceiver (Newport, DC Low mode). The signal from the photoreceiver was split into each lock-in amplifier, and the filtered outputs were digitized at 5 kHz using a NIDAQ (National Instruments PCIe-6353) and saved using a MATLAB (MathWorks) acquisition script.
Analysis was performed using custom MATLAB (MathWorks) scripts. Widefield imaging videos were registered to a 2D top-projection atlas generated from the annotated Allen Brain Atlas volume, version CCFv2, in MATLAB (MathWorks), using an affine transformation computed from four manually selected control points. Each video was DF/F normalized, using the median for each pixel over the entire time series as F. The 410 nm channel was then temporally smoothed using a moving average (width=400 ms). The smoothed 410 nm DF/F signal for each pixel was regressed onto the 488 nm DF/F signal for the corresponding pixel, and the regression coefficients were used to scale the 410 nm channel to the 488 nm channel. This scaled 410 nm DF/F signal was then subtracted from the 488 nm DF/F signal to produce a normalized signal for each pixel. For quantification, activity traces were extracted from points centered in five cortical regions (visual, somatosensory, parietal, motor, retrosplenial) on the left hemisphere of the brain. The video data was Gaussian smoothed spatially (radius=2 pixels). Similarly, for fiber photometry recordings, the 410 nm signal was regressed onto the 488 nm signal, the 410 nm signal was scaled by the regression coefficients, and then subtracted from the 488 nm signal.
Each trace (corresponding to either a fiber photometry signal, a cellular two-photon signal, a widefield regional centroid, a widefield pixel, an sEEG trace, or a smoothed spike rate Neuropixels trace) was z-scored, and the power spectral density (PSD) was then estimated using Welch's method (pwelch( ) in Matlab), with a window size of 10*fs (15*fs for human sEEG) where fs is the sampling rate of the signal. The average band power within a specified band (i.e. 1-3 Hz) was then computed by integrating the PSD estimate (bandpower in Matlab). For displaying the traces of individual cells, traces were each zscored by subtracting the mean value of the trace (across the whole recorded time window) and dividing by the standard deviation of the trace. Unless otherwise indicated, the PSD was computed across the time window from minutes 10 to 11 post-injection.
Stereotaxic Surgery: Adult male and female HCN1^f/f, NR1^f/f, or wildtype C57/B16 were injected bilaterally in two retrosplenial locations (AP −3.1 and −3.4, ML+/−0.5, DV −0.5) with 1 uL of AAV8-Ef1a-mCherry-IRES-Cre (titer 5E11) and AAVdj-Ef1a-DIO-GCaMP6m (titer 1E13). A 400-micron optical fiber was implanted over one injection location. At least four weeks were allowed for viral expression and gene disruption before photometry recording. For gene knockout behavior experiments, injections of AAVdj-Ef1a-Cre were made at (AP −2.7, −3.1 and −3.5, ML+/−0.5, DV −1.35 and −0.70). For gene knockout control behavioral experiments, two retrosplenial injections of AAVdj-Efla-Cre were made in experimental animals.

[5] = test system: neurons throughout the brain; experiment: Simultaneous recording from four Neuropixels probes with i.p. drug delivery
Description: Mice were anesthetized with isoflurane, carefully leveled in a stereotaxic apparatus and their scalp and periosteum were removed. A 3% hydrogen peroxide in saline solution was used to clean the surface of the skull. A custom stainless steel headbar was leveled on the skull and attached using clear dental cement. After the cement had dried, targeted probe entry sites were stereotaxically marked on the cement layer with a permanent marker (Day 1: “mPFC”, 2.3AP, 0.6 ML; “somatosensory”, −0.7AP, −4.0 ML; “retrosplenial”, −2AP, −1 ML; “subiculum”, −3.5AP, 2.14 ML; Day 2: “OFC”: 2.5AP, 1.5 ML; “mPFC”: 2.3AP, −0.6 ML; “retrosplenial”, −2AP, 1 ML; “thalamus”, −1.5AP, −1.7 ML). […] A 2 mm long insulated platinum-iridium wire was implanted centrally over the cerebellum, with the last several hundred microns bared to serve as an electrical reference.
Mice were acclimated to head fixation and the recording rig over several days before recording. Several hours before recording, mice were anesthetized for approximately 30 minutes each while small 1 mm craniotomies were made over four pre-marked areas. Craniotomies were kept clean of bone fragments and made such that bleeding was minimized. The skull was covered with a pool of saline and with Quik-Cast to protect and keep moist craniotomies before recording. Mice recovered in their homecages before recording. Immediately prior to recording set up, mice were very briefly anesthetized with isoflurane and implanted with an IV catheter system (BD Saf-T-Intima Closed IV Catheter System: 22G ×¾″, containing an integrated Y adaptor and safety lock) to their intraperitoneal cavity and affixed with glue. […] While still anesthetized, mice were headfixed and tubing was secured stably to a custom mouse holder by tape. Quik-Cast was removed from the skull, and craniotomies were briefly cleaned before being submerged in a pool of saline. Four Neuropixels 1.0 probes^43,44, were grounded together with the mouse reference electrode, coated with red fixable dye (CM-Dil, ThermoFisher), positioned over each craniotomy, and carefully inserted at approximately 15 degrees from the vertical axis to depths of 4-5 mm at a rate of approximately 3 um/s. Following the completion of all insertions, the probes were allowed to rest for at least 10 minutes before the recording began. 30 kHz data was acquired from the four probes simultaneously using the Neuropixels control system (as described in the User Manual) and SpikeGLX software (billkarsh.github.io/SpikeGLX/). The four acquisitions were synchronized using a common squarewave signal recorded for all probes and aligned to the nearest pulse edge. Following the beginning of recording, a 20-minute baseline period of activity was collected. […]

[6] = test system: mice; experiment: Resident-intruder social interaction assay; format: in vivo, mouse
Description: Social Interaction Assay: Resident-intruder social interaction was recorded for two minutes. Interactions were defined as close physical proximity behaviors, including sniffing, touching, and following. […] Illumination began 30 seconds before the same-sex intruder mouse was introduced.

CNC1(c2ccccc2Cl)CCCCC1=O (stereo not drawn) [ketamine]
Righting-reflex test for consciousness ([1]; anesthetic ketamine 200 mg/kg): abolished by anesthetic ketamine
Righting-reflex test for consciousness ([1]; subanesthetic ketamine doses): preserved in all animals
Righting of postural inversion ([1]; wild-type and knockout mice, ketamine): all mice successfully-righted postural inversion
Lowest tested dose causing the oscillation and behavioral effects [2]: 25 mg/kg
Time over which ketamine-induced oscillation decayed ([3]; Supplementary Note 2): ~15 min
Time over which ketamine-induced oscillation emerged ([3]; Supplementary Note 2): 2 min
Ketamine-induced 1-3 Hz movements ([3]; ketamine 50 mg/kg i.p.): no ketamine-induced 1-3 Hz movements were observed
Time for rhythm to emerge ([3]; ketamine 50 mg/kg i.p.): ≤ 120 s
Time for rhythm to return to baseline ([3]; ketamine 50 mg/kg i.p.): ~45 min
Magnitude of rhythm on repeated days ([3]; ketamine, five consecutive days): exhibited similar magnitude across five consecutive days
RSP activity-correlations with other dorsal-cortical regions ([3]; subanesthetic ketamine): reduced RSP activity-correlations with all other dorsal-cortical regions
Spread of the ketamine-rhythm ([3]; to other layers or nearby cortical regions): did not spread beyond layer 5 neurons in retrosplenial cortex
Cortical activity pattern: 1-3 Hz oscillation localized to retrosplenial cortex (RSP) ([3]; widefield imaging, i.p., ketamine 50 mg/kg subanesthetic dose, other drugs at doses of b234): a 1-3 Hz oscillation emerged in retrosplenial cortex (RSP), but not in any other cortical region
Glass's A, power 25 mg/kg vs 13 mg/kg (FIG. 3C) ([4]; 10 min after injection): 3.2
Hedge's g effect-size, oscillation-power GRIN1-pre/GRIN1-post (FIG. 4E) ([4]; GRIN1 knockout, ketamine): 2.03
Hedge's g effect-size, oscillation-power HCN1-pre/HCN1-post (FIG. 4E) ([4]; HCN1 knockout, ketamine): 1.02
1-3 Hz RSP oscillation ([4]; ketamine 25 mg/kg, widefield imaging and fiber photometry): revealed a 1-3 Hz oscillation at 25 mg/kg
Ketamine-induced oscillations ([4]; local RSP GRIN1 (NMDAR) knockout mice, four weeks after virus): significantly diminished; also recorded: partially attenuated
Ketamine-induced oscillations ([4]; local RSP HCN1 knockout mice, four weeks after virus): significantly diminished
Ketamine-induced oscillations ([4]; wild-type mice): preserved in wild-type
Hedge's g effect-size, oscillation-power WT-pre/WT-post (FIG. 4E) ([4]; wild-type, ketamine): 3.22
Correlations of brain regions with RSP ([5]; 8-12 min after ketamine injection (50 mg/kg i.p.)): correlations with RSP were reduced
Coupling of anteromedial thalamic neurons with RSP ([5]; subanesthetic ketamine): oscillate out-of-phase with RSP
Coupling of laterodorsal and anteroventral thalamus ([5]; subanesthetic ketamine): became more-strongly correlated to each other and RSP
Rhythmicity of subcortical regions ([5]; subanesthetic ketamine): specific subcortical regions (inaccessible to cortical imaging) exhibiting increased rhythmicity
Resident-intruder social interactions vs. wild-type ([6]; both channel-knockouts (HCN1, GRIN1), ketamine): modestly-recovered
Resident-intruder interactions ([6]; ketamine >=25 mg/kg): suppressed
